Measurements: patent publication US9402818B2, “Use of amides of mono- and dicarboxylic acids in the treatment of renal diseases” (priority 2010, dated 2016)
“And” between values parts separate entries of the source, which are not always exact repeats. Equal values may be shown once.

Experiments:
[1] = tested on: renal damage after administration of streptozotocin to mice; assay: Renal damage after administration of streptozotocin to mice (diabetic nephropathy model); format: in vivo, male mice C57BL6/J
From the text: The model of streptozootocin in mice represents a classic and known model of hyperglycemia capable of inducing a progressive renal damage into the animal leading to the renal disease with clear alterations of the characteristic parameters.
The model applied is as follows: male mice C57BL6/J were kept under standard conditions of care. Diabetes was induced into 8-weeks old mice and with an average weight of about 22 g by means of an intraperitoneal injection of streptozotocin in citrate buffer (55 mg/Kg of weight/day) for 5 consecutive days. The control animals were treated in the same conditions using the citrate buffer alone.
Treatments were administered orally, by means of a tube, using both micronized Palmitoylethanolamide- PEAm (10.0 mg/Kg) suspended in a carrier and ultra-micronized palmitoylethanolamide PEAum (10.0 mg/Kg) suspended in a carrier; the results were compared with control animals treated with the carrier alone. A 0.5% carboxymethyl cellulose was used as a carrier.
Diethanolamide of fumaric acid was administered in sterile aqueous saline solution by intraperitoneal injection (10.0 mg/Kg); the results were compared with the animals treated with sterile saline solution alone.
Administration of the carrier and of the two different suspensions containing palmitoylethanolamide or of the injection solution containing diethanolamide of fumaric acid, were performed once per day starting from the day of the last administration of Streptozotocin. Prior to sacrifice, the blood was collected from the saphenous vein using a micro syringe to determining, through conventional methods, the levels of glycemia, glycated haemoglobin and creatinine of the serum.

[2] = tested on: renal function of nephropathic patients; assay: Effect of ultra-micronized palmitoylethanolamide in nephropathic patients; format: in vivo, human; conditions: 600 mg tablets, 2 per day, 60 days; for GFR Glomerulal Filtration Rate (Creatinine Clearance) T 60: Cockcroft-Gault; for Glycemia under fasting T 60: single patients Paz-04, -05, -06, diabetic nephropathy, compensated with insulin, T 0 values 210, 240, 280 mg/dl
Description: Palmitoylethanolamide was administered to patients in form of tablets each containing 600 mg of active ingredient in ultra-micronized form; 2 tablets per day (one every 12 hours, after meals) were administered to patients for 60 consecutive days).
Determination of the GRF (Glomerular Filtration Rate) by the creatinine endogenous marker was carried out according to the […] criteria (K/DOQI clinical practice guidelines for chronic kidney disease, 2002), using the Cockcroft-Gault equation (Cockcroft D. W. et al, 1976).

TGF-1β [3] = assay: TGF-1β in renal cortex by ELISA, Cisplatin mice; format: in vivo, male mice C57BL6/J; conditions: pg/mg of total proteins
Description: (§1) The level of TGF-1β on the renal tissue was measured through the following method: small pieces of the renal cortex, carefully separated and weighed, were homogenised in Tris-HCl 10 mM buffer at a 7.4 pH containing 2M of NaCl, 1 mM PMSF (phenylmethylsulfonyl fluoride, as a protease inhibitor), 1 mM EDTA and 0.01% of Tween 80. The samples were centrifuged at 19,000 rpm for 30 minutes and the supernatant was collected, measured and preserved at −80° C. The amount of the TGF-1β was measured using the ELISA commercial kit (Quantikine Kit™, Res & Diagn Systems, Minneapolis, USA) and the value expressed in pg/mg of total proteins. The concentration of total proteins was measured using the Bio-Rad commercial test (Hercules, Calif., USA).

TGF-1β [4] = assay: TGF-1β in renal cortex by ELISA, streptozotocin mice; format: in vivo, male mice C57BL6/J; conditions: pg/mg of total proteins, diabetic mice
Description: as §1, with “The evaluation of TGF-1β” for “The level of TGF-1β”, “tissue was administered through the” for “tissue was measured through the”, “buffer at 7.4 pH” for “buffer at a 7.4 pH”, “protease inhibitor), 1mM EDTA and” for “protease inhibitor), 1 mM EDTA and”, “C. The evaluation of the” for “C. The amount of the”, “TGF-1β was made using the” for “TGF-1β was measured using the”

[5] = tested on: renal damage after administration of Cisplatin to mice; assay: Renal damage after administration of Cisplatin to mice (nephrotoxicity model); format: in vivo, male mice C57BL6/J; conditions: for Body weight: Cisplatin mice (20 mg/Kg i.p.); for Concentration of creatinine in the serum / Kidney weight/body weight / Amount of albumin excreted with urine (18 hrs prior to sacrifice): Cisplatin mice
From the text: Cisplatin, a known and widely used chemotherapy agent, notoriously produces a serious renal damage in 50% of the patients subjected to treatment. Experimentally an animal model is used in mice, in which Cisplatin induces serious nephrotoxicity with ensuing renal disease. The model applied is as follows: male mice C57BL6/J were kept under standard conditions of care. Nephrotoxicity was induced into 8-weeks old mice and with an average weight of about 23 g, by means of an intraperitoneal injection of Cisplatin dihydrochloride in saline solution (20 mg/Kg in one administration). The control animals were treated in the same conditions using the saline solution alone. The animals were sacrificed 72 hrs after treatment with Cisplatin.
6 treatments were administered orally, one each 12 hrs by means of a tube, using both micronized palmitoylethanolamide-PEAm (10.0 mg/Kg) suspended in a carrier and ultra-micronized palmitoylethanolamide-PEAum (10.0 mg/Kg) suspended in a carrier; the first treatment was carried out 12 hours prior to the administration of the Cisplatin. The results were compared with control animals treated with the carrier alone. A 0.5% carboxymethyl cellulose solution was used as the carrier.
Diethanolamide of fumaric acid was administered in sterile aqueous saline solution by intraperitoneal injection (10.0 mg/Kg) with posology analogous to that of PEA; the results were compared with animals treated with sterile saline solution alone.
Prior to sacrifice, the blood was collected from the saphenous vein using a micro syringe to measure, through conventional methods, the levels of creatinine of the serum.

Solubility in water = format: physicochemical
[6] = 10.0 mg/Kg orally once per day in 0.5% carboxymethyl cellulose, carrier alone 25.12 ± 1.10, non-diabetic 27.82 ± 1.18, 10 mg/kg
[7] = 10.0 mg/Kg orally once per day, carrier alone 1.11 ± 0.02, non-diabetic 0.21 ± 0.01, 10 mg/kg
[8] = 10.0 mg/Kg orally once per day, carrier alone 8.65 ± 0.85, non-diabetic 6.65 ± 0.04, 10 mg/kg
[9] = 10.0 mg/Kg orally once per day, carrier alone 12.80 ± 0.44, non-diabetic 4.89 ± 0.05, 10 mg/kg
[10] = 10.0 mg/Kg orally once per day, carrier alone 340.5, non-diabetic 33.7, 10 mg/kg
[11] = 10.0 mg/Kg orally once per day, carrier alone 408.45 ± 33.12, non-diabetic 122.2 ± 5.62, 10 mg/kg
[12] = 10.0 mg/Kg orally every 12 hrs x6, carrier alone 25.3 ± 6.0, control 8.2 ± 0.7, 10 mg/kg
[13] = 10.0 mg/Kg orally once per day, carrier alone 24.2 ± 5.8, non-diabetic 7.5 ± 0.8, 10 mg/kg
[14] = 10.0 mg/Kg orally every 12 hrs x6, sacrifice 72 hrs, carrier alone 23.10 ± 1.22, control 26.12 ± 1.11
[15] = 10.0 mg/Kg orally every 12 hrs x6, carrier alone 1.26 ± 0.05, control 0.22 ± 0.01, 10 mg/kg
[16] = 10.0 mg/Kg orally every 12 hrs x6, carrier alone 7.22 ± 0.80, control 6.44 ± 0.03, 10 mg/kg
[17] = 10.0 mg/Kg orally every 12 hrs x6, carrier alone 363.75, control 37.4, 10 mg/kg

| SMILES | Body weight [1, 6] | Concentration of creatinine in the serum [1, 7] | Kidney weight/body weight [1, 8] | Glycated haemoglobin % [1, 9] | Amount of albumin excreted with urine (18 hrs prior to sacrifice) [1, 10] | Glycemia [1, 11] | TGF-1β level in renal cortex (pg/mg total protein) (TGF-1β [3]; [12]) | Level of TGF-1β (TGF-1β [4]; [13]) | Body weight [5, 14] | Concentration of creatinine in the serum [5, 15] | Kidney weight/body weight [5, 16] | Amount of albumin excreted with urine (18 hrs prior to sacrifice) [5, 17] | also measured |
| --- | --- | --- | --- | --- | --- | --- | --- | --- | --- | --- | --- | --- | --- |
| CCCCCCCCCCCCCCCC(=O)NCCO [PEAum, Palmitoylethanolamide] | 26.12 ± 1.21 g | 0.44 ± 0.01 mg/dL | 7.15 ± 0.38 | 11.01 ± 0.18% | 151.5 | 380.34 ± 34.16 mg/dL | 9.4 ± 3.2 pg/mg | 10.3 ± 2.5 pg/mg | 24.55 ± 1.09 g | 0.48 ± 0.02 mg/dL | 6.89 ± 0.42 | 175.9 | GFR Glomerulal Filtration Rate (Creatinine Clearance) T 60 ([2]; single patients Paz-01, -02, -03, chronic inflammatory nephropathy, T 0 values 26.4, 21.4, 20.7): 44.6 and 35.2 and 36.1; GFR Glomerulal Filtration Rate (Creatinine Clearance) T 60 ([2]; single patients Paz-04, -05, -06, diabetic nephropathy (diabetes type 2), T 0 values 18.9, 22.4, 21.8): 41.4 and 35.6 and 39.8; Glycemia under fasting T 60 ([2]; with 10 U ready insulin): 230 mg/dL; Glycemia under fasting T 60 ([2]; with 10 U ready plus 20 U retard insulin): 210 mg/dL; Glycemia under fasting T 60 ([2]; with 12 U retard insulin): 110 mg/dL |
| O=C(/C=C/C(=O)NCCO)NCCO [diethanolamide of fumaric acid, Diethanolamide of fumaric acid] | – | – | – | – | – | – | – | – | – | – | – | – | Body weight ([1]; 10.0 mg/Kg i.p. once per day in saline solution, saline alone 24.43 ± 1.15, non-diabetic 27.82 ± 1.18): 26.22 ± 1.02 g; Concentration of creatinine in the serum ([1]; 10.0 mg/Kg i.p. once per day, saline alone 1.51 ± 0.08, non-diabetic 0.21 ± 0.01): 0.51 ± 0.03 mg/dL; Kidney weight/body weight ([1]; 10.0 mg/Kg i.p. once per day, saline alone 9.00 ± 0.56, non-diabetic 6.65 ± 0.04): 7.02 ± 0.46; Glycated haemoglobin % ([1]; 10.0 mg/Kg i.p. once per day, saline alone 13.41 ± 0.63, non-diabetic 4.89 ± 0.05): 12.12 ± 0.26%; Amount of albumin excreted with urine (18 hrs prior to sacrifice) ([1]; 10.0 mg/Kg i.p. once per day, saline alone 315.05, non-diabetic 33.7): 135.7; Glycemia ([1]; 10.0 mg/Kg i.p. once per day, saline alone 406.32 ± 33.44, non-diabetic 122.2 ± 5.62): 386.19 ± 33.98 mg/dL; TGF-1β level in renal cortex (pg/mg total protein) (TGF-1β [3]; 10.0 mg/Kg i.p., saline alone 22.1 ± 4.3, control 8.2 ± 0.7): 9.1 ± 2.8 pg/mg; Level of TGF-1β (TGF-1β [4]; 10.0 mg/Kg i.p. once per day, saline alone 25.3 ± 4.6, non-diabetic 7.5 ± 0.8): 11.7 ± 3.2 pg/mg; Solubility in water (Solubility in water): high solubility; Body weight ([5]; 10.0 mg/Kg i.p. in saline solution, posology as PEA, saline alone 24.22 ± 1.45, control 26.12 ± 1.11): 24.15 ± 1.12 g; Concentration of creatinine in the serum ([5]; 10.0 mg/Kg i.p., saline alone 1.36 ± 0.02, control 0.22 ± 0.01): 0.83 ± 0.06 mg/dL; Kidney weight/body weight ([5]; 10.0 mg/Kg i.p., saline alone 8.15 ± 0.46, control 6.44 ± 0.03): 6.58 ± 0.26; Amount of albumin excreted with urine (18 hrs prior to sacrifice) ([5]; 10.0 mg/Kg i.p., saline alone 351.57, control 37.4): 181.4 |
| CCCCCCCCCCCCCCCC(=O)NCCO [PEAm, Palmitoylethanolamide] | 26.52 ± 1.08 g | 0.81 ± 0.01 mg/dL | 7.85 ± 0.44 | 11.32 ± 0.38% | 289.4 | 386.12 ± 36.76 mg/dL | 15.8 ± 3.5 pg/mg | 15.0 ± 3.0 pg/mg | 23.58 ± 1.13 g | 0.92 ± 0.03 mg/dL | 7.85 ± 0.34 | 270.90 | – |
